From patent publication US6225494A, “Trisubstituted phenyl derivatives having retinoid agonist or inverse agonist type biological activity” (Allergan Sales, Inc., priority 1999, dated 2001)

Legend:
Test in all cases: RAR-P-GR holoreceptor transactivation assay (PGR assay)
Type in all cases: cell-based
[1] = molecular target: T1, RARα (Homo sapiens, UniProt P10276, E106G/G107S/G110V); conditions: for EC50: CV-1 cells, luciferase reporter, 18 hours; for Emax: relative to all-trans-retinoic acid, read-out: % Efficiency RARα
T1 construct: expressed in transfected cells; host or cells: CV-1
T1 sequence (P10276 1-462 E106G/G107S/G110V): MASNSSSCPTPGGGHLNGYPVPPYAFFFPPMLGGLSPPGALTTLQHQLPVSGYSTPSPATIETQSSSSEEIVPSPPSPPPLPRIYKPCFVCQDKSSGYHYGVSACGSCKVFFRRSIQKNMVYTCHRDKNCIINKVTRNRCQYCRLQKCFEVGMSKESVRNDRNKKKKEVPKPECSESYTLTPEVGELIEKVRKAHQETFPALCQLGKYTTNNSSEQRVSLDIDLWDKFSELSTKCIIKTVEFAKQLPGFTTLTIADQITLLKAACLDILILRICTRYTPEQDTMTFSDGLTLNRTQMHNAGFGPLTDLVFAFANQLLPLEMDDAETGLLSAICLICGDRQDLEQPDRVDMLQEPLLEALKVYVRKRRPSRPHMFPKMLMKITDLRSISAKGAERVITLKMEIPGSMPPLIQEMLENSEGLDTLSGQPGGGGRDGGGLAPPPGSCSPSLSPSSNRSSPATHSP
T1 sequence (P19793 1-462 partner): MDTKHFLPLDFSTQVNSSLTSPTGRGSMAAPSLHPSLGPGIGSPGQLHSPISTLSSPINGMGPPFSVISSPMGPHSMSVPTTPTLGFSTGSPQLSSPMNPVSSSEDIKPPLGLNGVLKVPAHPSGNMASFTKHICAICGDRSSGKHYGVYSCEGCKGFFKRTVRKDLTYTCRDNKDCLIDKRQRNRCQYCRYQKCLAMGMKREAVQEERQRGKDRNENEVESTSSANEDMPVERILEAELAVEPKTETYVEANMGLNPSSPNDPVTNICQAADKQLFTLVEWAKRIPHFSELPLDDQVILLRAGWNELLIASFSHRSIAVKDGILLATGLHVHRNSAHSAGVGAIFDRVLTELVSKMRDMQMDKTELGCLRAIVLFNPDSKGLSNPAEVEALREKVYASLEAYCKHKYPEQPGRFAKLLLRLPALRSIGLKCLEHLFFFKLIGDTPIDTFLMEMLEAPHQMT
Description: (§1) Still another transactivation assay, the "PGR assay" is described in the publication KIein et al. J. Biol. Chem. 271, 22692-22696 (1996) which is expressly incorporated herein by reference, and a detailed description is also provided below. The results of the PGR assay are also expressed in EC50 numbers (nanomolar concentration).
(§2) RAR-P-GR Holoreceptor Transactivation Assay
(§3) CV-1 cells (4×10^5 cells/well) were transiently transfected with the luciferase reporter plasmid MTV-4(R5G)-Luc (0.7 μg/well) containing four copies of the R5G retinoid DNA response element along with the RXRα expression plasmid pRS-hRXRα (0.1 μg/well) and one of the RAR-P-GR expression plasmids (0.05 μg/well) in 12 well plates via calcium phosphate precipitation Chen et al. (1987) Mol. Cell. Biol. 7, 2745-2752, as described by Vein et al. in J. Biol. Chem. 271, 22692, referenced above. The three different RAR-P-GR expression plasmids, pRS-RARα-P-GR, pcDNA3-RARβ-P-GR and pcDNA3-RARγ-P-GR, express RARα, RARβ and RARγ receptors, respectively, which contain modified DNA binding domains such that their "P-boxes" have been altered to that of the glucocorticoid receptor. These RAR-P-GR receptors bind to DNA as heterodimeric complexes with RXR. Specifically, the RAR-P-GR receptors bind retinoic acid response elements designated R5G, comprised of two RAR half sites (nucleotide sequence 5'-GGTTCA-3') separated by 5 base pairs in which the 3'-half site has been modified to that of a glucocorticoid receptor half site, 5'-AGAACA-3'. To allow for various in transfection efficiency a β-galactosidase expression plasmid (0.01 ug/well) was used as an internal control. Alternatively, the assay was performed in a 96-well microtiter plate format (5000 cells/well) in a manner which was identical to that described above except 1/5 of the amount of the DNA-calcium phosphate precipitant (20 μl instead of 100 μl) was applied to each well. Eighteen hours after introduction of the DNA precipitants, cells were rinsed with phosphate buffered saline (PBS) and fed with D-MEM (Gibco-BRL) containing 10% activated charcoal extracted fetal bovine serum (Gemini Bio-Products). After rinsing with PBS, cells were lysed and luciferase activity was measured as previously described in de Wet et al. (1987) Mol. Cell. Biol. 7, 725-737. Luciferase values represent the mean±SEM of triplicate determinations normalized to β-galactosidase activity.

[2] = molecular target: T2, RARβ (Homo sapiens, UniProt P10826, E106G/G107S/G110V); conditions: for EC50: CV-1 cells, luciferase reporter, 18 hours; for Emax: relative to all-trans-retinoic acid, read-out: % Efficiency RARβ
T2 construct: expressed in transfected cells; host or cells: CV-1
T2 sequence (P10826 1-448 isoform P10826-2 E99G/G100S/G103V): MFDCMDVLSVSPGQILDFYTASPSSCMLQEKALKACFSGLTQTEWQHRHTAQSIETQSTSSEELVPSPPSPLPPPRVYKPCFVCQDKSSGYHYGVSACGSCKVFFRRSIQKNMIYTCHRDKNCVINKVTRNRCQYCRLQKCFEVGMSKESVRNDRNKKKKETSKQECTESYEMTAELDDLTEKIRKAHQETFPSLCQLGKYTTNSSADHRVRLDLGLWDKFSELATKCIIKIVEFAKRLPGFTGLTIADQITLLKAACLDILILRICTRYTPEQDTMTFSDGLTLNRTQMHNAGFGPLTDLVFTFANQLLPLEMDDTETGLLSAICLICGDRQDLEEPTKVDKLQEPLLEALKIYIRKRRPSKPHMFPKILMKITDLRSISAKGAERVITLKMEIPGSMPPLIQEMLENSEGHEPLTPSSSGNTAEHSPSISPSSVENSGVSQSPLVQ
T2 sequence (P19793 1-462 partner): T1 sequence (P19793 1-462 partner)
Description: as §1, §2, §3

[3] = molecular target: T3, RARγ (Homo sapiens, UniProt P13631, E108G/G109S/G112V); conditions: for EC50: CV-1 cells, luciferase reporter, 18 hours; for Emax: relative to all-trans-retinoic acid, read-out: % Efficiency RARγ
T3 construct: expressed in transfected cells; host or cells: CV-1
T3 sequence (P13631 1-454 E108G/G109S/G112V): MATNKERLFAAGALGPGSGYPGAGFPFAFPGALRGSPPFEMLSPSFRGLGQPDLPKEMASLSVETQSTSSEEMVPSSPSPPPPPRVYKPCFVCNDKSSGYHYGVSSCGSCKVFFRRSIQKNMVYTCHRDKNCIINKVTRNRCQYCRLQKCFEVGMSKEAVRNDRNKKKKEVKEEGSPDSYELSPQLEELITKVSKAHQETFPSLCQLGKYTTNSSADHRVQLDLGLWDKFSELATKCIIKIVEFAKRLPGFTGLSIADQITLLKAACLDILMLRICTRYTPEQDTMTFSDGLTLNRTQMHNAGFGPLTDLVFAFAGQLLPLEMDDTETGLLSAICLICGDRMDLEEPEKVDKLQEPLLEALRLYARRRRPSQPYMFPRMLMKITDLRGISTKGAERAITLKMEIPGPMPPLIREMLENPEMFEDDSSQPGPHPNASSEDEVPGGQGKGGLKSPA
T3 sequence (P19793 1-462 partner): T1 sequence (P19793 1-462 partner)
Description: as §1, §2, §3

Row | EC50 [1] | Emax [1] | EC50 [2] | Emax [2] | EC50 [3] | Emax [3] | Compound
1 | > 10 µM | 1% | > 10 µM | 3% | > 10 µM | 1% | Cc1ccc(C(=O)c2cc(C#Cc3ccc(C(=O)O)cc3)ccc2O)cc1 [Compound 5, 4-[[4'-hydroxy-3'-(4"-methyl)benzoyl]phenylethynyl]benzoic acid]
2 | > 10 µM | 1% | > 10 µM | 3% | > 10 µM | 3% | C=C(c1ccc(C)cc1)c1cc(C#Cc2ccc(C(=O)O)cc2)ccc1O [Compound 8, 4-[[4'-Hydroxy-3'-(1-p-tolyl)vinyl]phenylethynyl]benzoic acid]
3 | > 10 µM | 1% | > 10 µM | 3% | > 10 µM | 5% | C=C(c1ccc(C)cc1)c1cc(C#Cc2ccc(C(=O)O)cc2)ccc1OCOC [Compound 9, 4-[[4'-methoxymethoxy-3'-(1-p-tolyl)vinyl]phenylethynyl]benzoic acid]
4 | > 10 µM | 0% | > 10 µM | 1% | > 10 µM | 5% | C=C(c1ccc(C)cc1)c1cc(C#Cc2ccc(C(=O)O)cc2)ccc1OC [Compound 12, 4-[[4'-Methoxy-3'-(1-p-tolyl)vinyl]phenylethynyl]benzoic acid]
5 | > 10 µM | 0% | > 10 µM | 0% | > 10 µM | 0% | COCOc1ccc(C#Cc2ccc(C(=O)O)cc2)cc1C(=O)c1ccc(C)cc1 [Compound 13]
6 | > 10 µM | 9% | > 10 µM | 5% | > 10 µM | 1% | C=C(c1ccc(C)cc1)c1cccc(C#Cc2ccc(C(=O)O)cc2)c1 [Compound 20, 4-[[3'-(1-p-Tolyl)vinyl]phenylethynyl]benzoic acid]
7 | > 10 µM | 0% | > 10 µM | 0% | > 10 µM | 0% | COc1ccc(C#Cc2ccc(C(=O)O)cc2)cc1C(=O)c1ccc(C)cc1 [Compound 22, 4-[[4'-methoxy-3'-(4"-methyl)benzoyl]phenylethynyl]benzoic acid]
8 | > 10 µM | 0% | > 10 µM | 2% | > 10 µM | 0% | Cc1ccc(C(=O)c2cc(C#Cc3ccc(C(=O)O)c(F)c3)c(C)cc2O)cc1 [Compound 25, 4-[[4'-Hydroxy-2'-methyl-5'-(4"-methyl)benzoyl]phenylethynyl]-2-fluoro-benzoic acid]
9 | > 10 µM | 0% | > 10 µM | 0% | > 10 µM | 1% | C=C(c1ccc(C)cc1)c1cc(C#Cc2ccc(C(=O)O)cc2)ccc1OC(C)C [Compound 28, 4-[[4'-Isopropoxy-3'-(1-p-tolyl)vinyl]phenylethynyl]benzoic acid]
10 | > 10 µM | 0% | > 10 µM | 0% | > 10 µM | 1% | C=C(c1ccc(C)cc1)c1cc(C#Cc2ccc(C(=O)O)c(F)c2)ccc1OC(C)C [Compound 29, 4-[[4'-Isopropoxy-3'-(1-p-tolyl)vinyl]phenylethynyl]-2-fluoro-benzoic acid]
11 | > 10 µM | 0% | > 10 µM | 4% | > 10 µM | 2% | C=C(c1cccc(C)c1)c1cc(C#Cc2ccc(C(=O)O)cc2)ccc1OC(C)C [Compound 31, 4-[[4'-Isopropoxy-3'-(1-m-tolyl)vinyl]phenylethynyl]benzoic acid]
